Laboratory results from patent US7666864B2, “Bicyclic nitroimidazole-substituted phenyl oxazolidinones” (priority 2008, dated 2010).
In brackets after ≈: the same amount, converted by molar mass.

Tested on: M. tuberculosis (PA-resistant)
Test: microbe, parasite or virus in culture
Type: cell-based, Mycobacterium tuberculosis
Conditions: for MIC: Mycobacterium tuberculosis

For `CC(=O)NC[C@H]1CN(c2ccc(-c3ccc(CO[C@@H]4COc5nc([N+](=O)[O-])cn5C4)cc3)c(F)c2)C(=O)O1` [Example 31, (S,S)—N-{3-[2-Fluoro-4′-(2-nitro-6,7-dihydro-5H-imidazo[2,1-b][1,3]oxazin-6-yloxymethyl)-biphenyl-4-yl]-2-oxo-oxazolidin-5-ylmethyl}-acetamide], the “MIC against PA-824 resistant strain of Mycobacterium tuberculosis H37Rv” value was 1 micg/mL and the MIC was 1 µg/mL (≈ 1.9 µM).

In the case of `O=[N+]([O-])c1cn2c(n1)OC[C@@H](OCc1ccc(OC(F)(F)F)cc1)C2` [PA-824, reference compound], the “activity against PA-824 resistant strain (in words)” value is reported as “loses its activity” and the MIC is reported as greater than 32 µg/mL.

With `CC(=O)NC[C@H]1CN(c2ccc(-c3cnc(O[C@@H]4COc5nc([N+](=O)[O-])cn5C4)nc3)c(F)c2)C(=O)O1` [Example 8, (S,S)—N-(3-{3-Fluoro-4-[2-(2-nitro-6,7-dihydro-5H-imidazo[2,1-b][1,3]oxazin-6-yloxy)-pyrimidin-5-yl]-phenyl}-2-oxo-oxazolidin-5-ylmethyl)-acetamide] the “MIC against PA-824 resistant strain of Mycobacterium tuberculosis H37Rv” value was 0.5 micg/mL and the MIC was 0.5 µg/mL (≈ 0.974 µM).

For `CC(=O)NC[C@H]1CN(c2ccc(N3CCOCC3)c(F)c2)C(=O)O1` [Linezolid, linezolid, reference compound], the MIC was 0.5 µg/mL (≈ 1.48 µM).
